This passage reports IC50 results from patent US20100317647A1 (priority 2009, published 2010).

SMILES strings stand for the structures.

Broadly, the IC50 is the midpoint of a concentration-inhibition curve. Low readings indicate inhibition by little substance, high ones a need for much substance.

human Cat S, sequence (P25774 115-331): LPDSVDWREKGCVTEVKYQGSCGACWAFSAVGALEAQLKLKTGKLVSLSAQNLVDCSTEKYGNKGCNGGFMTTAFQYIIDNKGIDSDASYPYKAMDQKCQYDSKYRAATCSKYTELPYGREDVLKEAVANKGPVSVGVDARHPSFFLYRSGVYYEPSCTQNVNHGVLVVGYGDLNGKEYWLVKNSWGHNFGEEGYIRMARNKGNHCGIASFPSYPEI

The assay addresses human Cat S (Homo sapiens, UniProt P25774). The assay is described as follows: Cathepsin enzyme inhibition assay (fluorogenic peptide substrate cleavage). It counts as biochemical. The note with it: human Cat S 1 nM; substrate Z-Val-Val-Arg-AMC 20 μM; pH 6.5; fluorescence over 20 minutes. As for the experimental part: Cathepsin Enzyme Inhibition Assay
Enzyme activity is measured by observing the increase in fluorescence intensity caused by cleavage of a peptide substrate containing a fluorophore whose emission is quenched in the intact peptide.
Assay buffer: 100 mM potassium phosphate pH 6.5, EDTA-Na 5 mM, Triton X-100 0.001%, DTT 5 mM. Enzymes (all at 1 nM): human and mouse Cathepsin S, Cat K, Cat B, Cat L. Substrate (20 μM): Z-Val-Val-Arg-AMC, except for Cat K which uses Z-Leu-Arg-AMC (both from Bachem).
AMC=7-Amino-4-Methyl-Coumarin.
DTT=dithiothreitol. Final volume: 100 μL.
Excitation 360 nm, Emission 465 nm.
Enzyme is added to the substance dilutions in 96-well microtitre plates and the reaction is started with substrate. Fluorescence emission is measured over 20 minutes, during which time a linear increase is observed in the absence of inhibitor. IC50 are calculated by standard methods. Inhibition of human Cat S, mouse Cat S, human Cat K, mouse Cat K, human Cat B, mouse Cat B, human Cat L and mouse Cat L have been measured separately. The results obtained for human Cat S are expressed in the following table.
For the compound `CO[C@@H]1C[C@H](S(=O)(=O)c2ccc(-c3ccc(F)cc3)cc2C(F)(F)F)C[C@H]1C(=O)NC1(C#N)CC1` (racemic) [Example 63, (1R,2R,4R) and (1S,2S,4S)-4-(4′-Fluoro-3-trifluoromethyl-biphenyl-4-sulfonyl)-2-methoxy-cyclopentanecarboxylic acid (1-cyano-cyclopropyl)-amide], the IC50 came out at 1.3 nM.

In the case of `CO[C@@H]1C[C@H](S(=O)(=O)c2ccc(N3CCCCC3)cc2Cl)C[C@H]1C(=O)NC1(C#N)CC1` (racemic) [Example 64, (1R,2R,4R) and (1S,2S,4S)-4-(2-Chloro-4-piperidin-1-yl-benzenesulfonyl)-2-methoxy-cyclopentanecarboxylic acid (1-cyano-cyclopropyl)-amide], the IC50 came to 12 nM.

`CO[C@@H]1C[C@H](S(=O)(=O)c2ccc(OCC(F)(F)F)cc2Cl)C[C@H]1C(=O)NC1(C#N)CC1` (racemic) [Example 65, (1R,2R,4R) and (1S,2S,4S)-4-[2-Chloro-4-(2,2,2-trifluoro-ethoxy)-benzenesulfonyl]-2-methoxy-cyclopentanecarboxylic acid (1-cyano-cyclopropyl)-amide]: half-maximal inhibition (IC50) was put at 8 nM.

`CO[C@@H]1C[C@H](S(=O)(=O)c2ccc(-c3cnn(C)c3)cc2C(F)(F)F)C[C@H]1C(=O)NC1(C#N)CC1` (racemic) [Example 66, (1R,2R,4R) and (1S,2S,4S)-2-Methoxy-4-[4-(1-methyl-1H-pyrazol-4-yl)-2-trifluoromethyl-benzenesulfonyl]-cyclopentanecarboxylic acid (1-cyano-cyclopropyl)-amide] came in with an IC50 of 0.7 nM.

Compound `CO[C@@H]1C[C@H](S(=O)(=O)c2ccc(-c3cc(C)nn3C)cc2C(F)(F)F)C[C@H]1C(=O)NC1(C#N)CC1` (racemic) [Example 67, (1R,2R,4R) and (1S,2S,4S)-4-[4-(2,5-Dimethyl-2H-pyrazol-3-yl)-2-trifluoromethyl-benzenesulfonyl]-2-methoxy-cyclopentanecarboxylic acid (1-cyano-cyclopropyl)-amide] came in with an IC50 of 0.6 nM.

In turn, `CO[C@@H]1C[C@H](S(=O)(=O)c2ccc(-c3ccnn3C)cc2C(F)(F)F)C[C@H]1C(=O)NC1(C#N)CC1` (racemic) [Example 72, (1R,2R,4R) and (1S,2S,4S)-2-Methoxy-4-[4-(1-methyl-1H-pyrazol-5-yl)-2-trifluoromethyl-benzenesulfonyl]-cyclopentanecarboxylic acid (1-cyano-cyclopropyl)-amide] had an IC50 of 1.2 nM.

Compound `CO[C@@H]1C[C@H](S(=O)(=O)c2ccc(-c3cc[nH]n3)cc2C(F)(F)F)C[C@H]1C(=O)NC1(C#N)CC1` (racemic) [Example 73, (1R,2R,4R) and (1S,2S,4S)-2-Methoxy-4-[4-(1H-pyrazol-3-yl)-2-trifluoromethyl-benzenesulfonyl]-cyclopentanecarboxylic acid (1-cyano-cyclopropyl)-amide] had an IC50 of 1 nM.

`CO[C@@H]1C[C@H](S(=O)(=O)c2ccc(-c3ccc(F)c(F)c3)cc2C(F)(F)F)C[C@H]1C(=O)NC1(C#N)CC1` (racemic) [Example 74, (1R,2R,4R) and (1S,2S,4S)-4-(3′,4′-Difluoro-3-trifluoromethyl-biphenyl-4-sulfonyl)-2-methoxy-cyclopentanecarboxylic acid (1-cyano-cyclopropyl)-amide] displayed an IC50 of 0.7 nM.

As to `CO[C@@H]1C[C@H](S(=O)(=O)c2ccc(-c3ccc(S(C)(=O)=O)cc3)cc2C(F)(F)F)C[C@H]1C(=O)NC1(C#N)CC1` (racemic) [Example 75, (1R,2R,4R) and (1S,2S,4S)-4-(4′-Methanesulfonyl-3-trifluoromethyl-biphenyl-4-sulfonyl)-2-methoxy-cyclopentanecarboxylic acid (1-cyano-cyclopropyl)-amide], half-maximal inhibition (IC50) was put at 0.5 nM.

For `CO[C@@H]1C[C@H](S(=O)(=O)c2ccc(-c3ccc(S(N)(=O)=O)cc3)cc2C(F)(F)F)C[C@H]1C(=O)NC1(C#N)CC1` (racemic) [Example 76, (1R,2R,4R) and (1S,2S,4S)-2-Methoxy-4-(4′-sulfamoyl-3-trifluoromethyl-biphenyl-4-sulfonyl)-cyclopentanecarboxylic acid (1-cyano-cyclopropyl)-amide], the IC50 was 0.6 nM.

As for `CO[C@@H]1C[C@H](S(=O)(=O)c2ccc(-c3ccnc(C)c3)cc2C(F)(F)F)C[C@H]1C(=O)NC1(C#N)CC1` (racemic) [Example 77, (1R,2R,4R) and (1S,2S,4S)-2-Methoxy-4-[4-(2-methyl-pyridin-4-yl)-2-trifluoromethyl-benzenesulfonyl]-cyclopentanecarboxylic acid (1-cyano-cyclopropyl)-amide], the IC50 came out at 0.6 nM. That is a sub-nanomolar value.

Compound `COc1ccc(-c2ccc(S(=O)(=O)[C@H]3C[C@@H](OC)[C@H](C(=O)NC4(C#N)CC4)C3)c(C(F)(F)F)c2)cn1` (racemic) [Example 78, (1R,2R,4R) and (1S,2S,4S)-2-Methoxy-4-[4-(6-methoxy-pyridin-3-yl)-2-trifluoromethyl-benzenesulfonyl]-cyclopentanecarboxylic acid (1-cyano-cyclopropyl)-amide] showed an IC50 of 0.3 nM.

On to `N#CCNC(=O)[C@H]1CC[C@H](S(=O)(=O)c2ccc(F)cc2Cl)C1` (racemic) [Example 79, (1S,3S) and (1R,3R)-3-(2-Chloro-4-fluoro-benzenesulfonyl)-cyclopentanecarboxylic acid cyanomethyl-amide], for which inhibition was half-maximal at 683 nM (IC50).

The compound `C[C@H](Oc1ccc(S(=O)(=O)[C@H]2CC[C@H](C(=O)NCC#N)C2)c(Cl)c1)C(F)(F)F` (racemic) [Example 80, (1S,3S)-3-[2-Chloro-4-(2,2,2-trifluoro-1-methyl-ethoxy)-benzenesulfonyl]-cyclopentanecarboxylic acid cyanomethyl-amide (epimeric mixture of racemate)] registered an IC50 of 1030 nM. Against the preceding compound, the IC50 is about 1.5-fold higher.

In turn, `CO[C@@H]1C[C@H](S(=O)(=O)c2ccc(-c3ccc(C)nc3)cc2C(F)(F)F)C[C@H]1C(=O)NC1(C#N)CC1` (racemic) [Example 81, (1R,2R,4R) and (1S,2S,4S)-2-Methoxy-4-[4-(6-methyl-pyridin-3-yl)-2-trifluoromethyl-benzenesulfonyl]-cyclopentanecarboxylic acid (1-cyano-cyclopropyl)-amide] came in with an IC50 of 0.6 nM.

As to `CO[C@@H]1C[C@H](S(=O)(=O)c2ccc(-c3cncnc3)cc2C(F)(F)F)C[C@H]1C(=O)NC1(C#N)CC1` (racemic) [Example 82, (1R,2R,4R) and (1S,2S,4S)-2-Methoxy-4-(4-pyrimidin-5-yl-2-trifluoromethyl-benzenesulfonyl)-cyclopentanecarboxylic acid (1-cyano-cyclopropyl)-amide], the concentration for half-maximal inhibition (IC50) came to 0.6 nM. That is a sub-nanomolar value.

`CO[C@@H]1C[C@H](S(=O)(=O)c2ccc(-c3cncc(S(C)(=O)=O)c3)cc2C(F)(F)F)C[C@H]1C(=O)NC1(C#N)CC1` (racemic) [Example 83, (1R,2R,4R) and (1S,2S,4S)-4-[4-(5-Methanesulfonyl-pyridin-3-yl)-2-trifluoromethyl-benzenesulfonyl]-2-methoxy-cyclopentanecarboxylic acid (1-cyano-cyclopropyl)-amide] came in with an IC50 of 0.2 nM. This IC50 lies about 3-fold lower than the previous one.
